Measured values taken from patent publication US20230133958A1, “COMPOUNDS USEFUL IN MODULATING EGFR AND PI3K” (Mekanistic Therapeutics LLC, priority 2021, published 2023).

How the values were obtained:
HER2 = HER2 (Homo sapiens, UniProt P04626); test: Z'-LYTE / Adapta biochemical kinase assay, HER2
From the text: (§1) The Z′-LYTE® biochemical assay employs a fluorescence-based, coupled-enzyme format and is based on the differential sensitivity of phosphorylated and non-phosphorylated peptides to proteolytic cleavage. The peptide substrate is labeled with two fluorophores—one at each end—that make up a FRET pair. In the primary reaction, the kinase transfers the gamma-phosphate of ATP to a single tyrosine, serine or threonine residue in a synthetic FRET-peptide. In the secondary reaction, a site-specific protease recognizes and cleaves non-phosphorylated FRET-peptides. Phosphorylation of FRET-peptides suppresses cleavage by the Development Reagent. […] A ratiometric method, which calculates the ratio (the Emission Ratio) of donor emission to acceptor emission after excitation of the donor fluorophore at 400 nm, is used to quantitate reaction progress.
(§2) A significant benefit of this ratiometric method for quantitating reaction progress is the elimination of well-to-well variations in FRET-peptide concentration and signal intensities. […]
(§3) Both cleaved and uncleaved FRET-peptides contribute to the fluorescence signals and therefore to the Emission Ratio. The extent of phosphorylation of the FRET-peptide can be calculated from the Emission Ratio. […]

PI3Kβ = PI3Kβ (Homo sapiens, UniProt P42338); test: Z'-LYTE / Adapta biochemical kinase assay, PI3Kβ
From the text: as §1, §2, §3

P13Kγ = P13Kγ (Homo sapiens, UniProt P48736); test: Z'-LYTE / Adapta biochemical kinase assay, PI3Kγ
P13Kγ, sequence (P48736 whole entry, stated change not applied): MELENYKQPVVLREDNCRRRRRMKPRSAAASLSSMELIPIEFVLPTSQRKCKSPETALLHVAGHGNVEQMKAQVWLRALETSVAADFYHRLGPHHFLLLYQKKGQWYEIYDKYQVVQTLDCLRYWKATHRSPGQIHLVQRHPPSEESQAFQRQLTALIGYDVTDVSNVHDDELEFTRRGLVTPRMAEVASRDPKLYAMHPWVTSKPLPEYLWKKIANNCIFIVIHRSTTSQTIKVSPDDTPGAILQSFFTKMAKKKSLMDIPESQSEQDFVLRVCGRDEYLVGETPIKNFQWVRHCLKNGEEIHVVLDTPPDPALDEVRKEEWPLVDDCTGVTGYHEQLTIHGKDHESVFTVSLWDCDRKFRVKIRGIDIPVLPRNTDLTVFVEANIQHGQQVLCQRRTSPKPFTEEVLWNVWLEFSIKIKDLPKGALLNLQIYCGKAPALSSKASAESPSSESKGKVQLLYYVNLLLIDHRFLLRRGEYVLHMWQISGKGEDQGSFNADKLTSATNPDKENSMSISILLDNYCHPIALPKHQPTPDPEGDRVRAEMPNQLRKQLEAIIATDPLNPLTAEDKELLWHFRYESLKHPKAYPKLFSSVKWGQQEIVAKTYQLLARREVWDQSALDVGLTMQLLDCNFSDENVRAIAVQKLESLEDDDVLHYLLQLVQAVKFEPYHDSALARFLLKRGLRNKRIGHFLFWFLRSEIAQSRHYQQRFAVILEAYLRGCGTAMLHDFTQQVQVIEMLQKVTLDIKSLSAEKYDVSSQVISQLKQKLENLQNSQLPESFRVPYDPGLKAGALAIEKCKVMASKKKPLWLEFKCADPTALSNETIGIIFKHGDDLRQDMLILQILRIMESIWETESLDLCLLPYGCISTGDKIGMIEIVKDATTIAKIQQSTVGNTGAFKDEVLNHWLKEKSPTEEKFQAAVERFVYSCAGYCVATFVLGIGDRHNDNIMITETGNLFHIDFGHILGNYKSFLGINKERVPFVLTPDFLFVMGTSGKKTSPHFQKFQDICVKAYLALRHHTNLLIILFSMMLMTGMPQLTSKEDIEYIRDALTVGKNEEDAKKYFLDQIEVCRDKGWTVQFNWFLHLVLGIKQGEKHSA
From the text: as §1, §2, §3

P13Kδ = P13Kδ (Homo sapiens, UniProt O00329); test: Z'-LYTE / Adapta biochemical kinase assay, PI3Kδ
P13Kδ, sequence (O00329 whole entry, stated change not applied): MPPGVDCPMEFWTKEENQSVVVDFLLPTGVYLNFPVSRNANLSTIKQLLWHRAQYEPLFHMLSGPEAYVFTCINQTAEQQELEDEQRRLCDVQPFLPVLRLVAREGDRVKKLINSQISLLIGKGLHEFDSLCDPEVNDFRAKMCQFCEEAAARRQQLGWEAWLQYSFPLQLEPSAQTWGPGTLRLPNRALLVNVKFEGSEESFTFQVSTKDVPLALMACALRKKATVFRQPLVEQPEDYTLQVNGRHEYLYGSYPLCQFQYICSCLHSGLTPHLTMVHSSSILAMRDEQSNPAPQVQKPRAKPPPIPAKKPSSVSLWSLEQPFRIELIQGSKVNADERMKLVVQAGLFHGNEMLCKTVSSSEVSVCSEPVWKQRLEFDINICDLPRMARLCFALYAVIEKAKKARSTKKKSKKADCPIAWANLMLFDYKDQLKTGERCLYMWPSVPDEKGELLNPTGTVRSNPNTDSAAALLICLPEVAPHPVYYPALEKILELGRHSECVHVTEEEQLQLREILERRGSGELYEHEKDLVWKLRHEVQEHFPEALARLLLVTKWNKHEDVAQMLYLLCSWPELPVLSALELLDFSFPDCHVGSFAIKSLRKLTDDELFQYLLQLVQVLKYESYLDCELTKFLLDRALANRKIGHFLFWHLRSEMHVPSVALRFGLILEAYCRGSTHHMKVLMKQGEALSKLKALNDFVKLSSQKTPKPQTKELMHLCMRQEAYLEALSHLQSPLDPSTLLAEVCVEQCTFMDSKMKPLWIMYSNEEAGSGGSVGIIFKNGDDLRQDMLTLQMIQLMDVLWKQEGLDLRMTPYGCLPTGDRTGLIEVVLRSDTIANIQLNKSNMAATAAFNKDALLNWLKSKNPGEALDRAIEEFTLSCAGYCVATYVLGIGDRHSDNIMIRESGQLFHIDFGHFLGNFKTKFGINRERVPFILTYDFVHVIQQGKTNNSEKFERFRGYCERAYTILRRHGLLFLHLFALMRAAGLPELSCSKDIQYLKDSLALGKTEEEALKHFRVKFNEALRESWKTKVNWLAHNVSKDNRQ
P13Kδ, sequence (P27986 2-724 partner limits assumed): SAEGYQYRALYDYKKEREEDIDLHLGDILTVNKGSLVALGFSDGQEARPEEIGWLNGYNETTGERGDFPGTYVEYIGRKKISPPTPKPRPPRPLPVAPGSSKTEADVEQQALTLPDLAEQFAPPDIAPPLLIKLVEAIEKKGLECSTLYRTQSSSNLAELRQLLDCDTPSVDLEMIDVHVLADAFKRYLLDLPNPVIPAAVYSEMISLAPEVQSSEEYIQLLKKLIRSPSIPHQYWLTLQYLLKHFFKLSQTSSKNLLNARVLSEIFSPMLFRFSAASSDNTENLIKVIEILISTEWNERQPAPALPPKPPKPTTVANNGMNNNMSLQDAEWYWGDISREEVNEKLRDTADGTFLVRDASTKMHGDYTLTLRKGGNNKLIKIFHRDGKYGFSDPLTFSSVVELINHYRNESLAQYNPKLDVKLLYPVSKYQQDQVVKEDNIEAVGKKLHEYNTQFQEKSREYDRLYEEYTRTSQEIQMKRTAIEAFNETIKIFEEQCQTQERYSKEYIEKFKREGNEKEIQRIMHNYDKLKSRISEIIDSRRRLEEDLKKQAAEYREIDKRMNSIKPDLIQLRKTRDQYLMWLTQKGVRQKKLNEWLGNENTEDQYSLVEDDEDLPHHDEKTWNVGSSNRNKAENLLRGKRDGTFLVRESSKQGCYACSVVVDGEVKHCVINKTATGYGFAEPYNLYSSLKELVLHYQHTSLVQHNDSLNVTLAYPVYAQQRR
From the text: as §1, §2, §3

MTOR = MTOR (Homo sapiens, UniProt P42345); test: Z'-LYTE / Adapta biochemical kinase assay, MTOR
From the text: as §1, §2, §3

HER2, sequence (P04626 23-1255): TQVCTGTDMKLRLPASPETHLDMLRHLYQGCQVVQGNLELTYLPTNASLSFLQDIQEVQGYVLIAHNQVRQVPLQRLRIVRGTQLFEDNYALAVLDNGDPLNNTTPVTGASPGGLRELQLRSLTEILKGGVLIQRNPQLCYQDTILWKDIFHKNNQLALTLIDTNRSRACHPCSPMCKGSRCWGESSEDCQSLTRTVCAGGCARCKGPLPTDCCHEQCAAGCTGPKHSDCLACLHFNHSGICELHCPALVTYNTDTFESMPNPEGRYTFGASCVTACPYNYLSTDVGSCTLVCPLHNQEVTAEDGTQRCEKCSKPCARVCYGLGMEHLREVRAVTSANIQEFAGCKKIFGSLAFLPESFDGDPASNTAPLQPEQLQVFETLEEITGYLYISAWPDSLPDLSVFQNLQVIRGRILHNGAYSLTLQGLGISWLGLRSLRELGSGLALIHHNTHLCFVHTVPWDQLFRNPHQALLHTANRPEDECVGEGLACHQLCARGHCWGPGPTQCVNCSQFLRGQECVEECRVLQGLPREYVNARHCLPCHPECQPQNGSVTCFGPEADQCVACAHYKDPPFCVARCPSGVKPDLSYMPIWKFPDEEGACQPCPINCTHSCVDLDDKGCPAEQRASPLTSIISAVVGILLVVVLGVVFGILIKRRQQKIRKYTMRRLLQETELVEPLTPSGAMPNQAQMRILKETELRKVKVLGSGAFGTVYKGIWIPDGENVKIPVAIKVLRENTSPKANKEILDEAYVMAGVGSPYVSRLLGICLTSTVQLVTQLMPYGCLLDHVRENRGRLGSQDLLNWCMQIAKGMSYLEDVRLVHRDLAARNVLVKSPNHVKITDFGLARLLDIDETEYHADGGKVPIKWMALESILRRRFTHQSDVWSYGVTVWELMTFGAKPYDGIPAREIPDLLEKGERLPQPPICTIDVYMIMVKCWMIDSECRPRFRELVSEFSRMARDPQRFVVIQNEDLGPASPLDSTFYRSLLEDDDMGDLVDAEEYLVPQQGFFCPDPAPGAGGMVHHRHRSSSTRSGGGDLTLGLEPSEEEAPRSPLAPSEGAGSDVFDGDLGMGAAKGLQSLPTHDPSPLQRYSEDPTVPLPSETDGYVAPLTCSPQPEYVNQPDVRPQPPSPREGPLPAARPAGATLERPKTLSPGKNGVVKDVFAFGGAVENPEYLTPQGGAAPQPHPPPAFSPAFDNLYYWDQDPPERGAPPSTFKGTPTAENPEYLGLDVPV

SMILES: CS(=O)(=O)Nc1cc(-c2ccc3ncnc(Nc4cccc(Cl)c4F)c3c2)cnc1Cl [Compound 6, N-[2-chloro-5-[4-(3-chloro-2-fluoro-anilino)quinazolin-6-yl]-3-pyridyl] methanesulfonamide]
- IC50 (HER2): > 200 nM
- IC50 (PI3Kβ): 20 to 200 nM
- IC50 (P13Kγ): ≤ 2 nM
- IC50 (P13Kδ): ≤ 2 nM
- IC50 (MTOR): 2 to 20 nM
